Earlier results, collected in PubChem BioAssay AID1259410 (Chemical Carcinogenesis Research Information System (CCRIS), 2018).

Tested on: rodent tumor promotion studies, tumor incidence
Assay: CCRIS tumor promotion studies
[1] = Carcinogen: 7,12-DIMETHYLBENZ(A)ANTHRACENE, Doses [Carcinogen]: TOP, Route [Carcinogen]: DERMAL, Route [Promoter]: DERMAL, Species: MOUSE, Strain/Sex: MALE,FEMALE

Q: Which outcome (Carcinogen: DIETHYLNITROSAMINE, 55-18-5, N-BUTYL-N-(4-HYDROXYBUTYL)NITROSAMINE, 3817-11-6, Carcinogen: DIETHYLNITROSAMINE, 55-18-5, N-BUTYL-N-(4-HYDROXYBUTYL)NITROSAMINE, 3817-11-6, Doses [Carcinogen]: 200 MG/KG DEN ONCE THEN 0.05% BBN IN DRINKING WATER FOR 4 WK, Doses [Promoter]: 0, 0.1% IN DIET FOR 32 WK BEGINNING 3 D POST CARCINOGEN TREATMENT (STUDY DURATION:36 WK), Route [Carcinogen]: INTRAPERITONEAL, ORAL, Route [Promoter]: ORAL, Species: RAT, Strain/Sex: F344/MALE) does the source give for `S=C=NCc1ccccc1` here?
A: urinary bladder: papilloma, carcinoma

Q: For `CCCCCCCCCCCC(=O)OCCOC[C@@H](OCCO)[C@H]1OC[C@@H](OCCO)[C@H]1OCCO`, which outcome (Carcinogen: 7,12-DIMETHYLBENZ(A)ANTHRACENE, Doses [Carcinogen]: TOP, Route [Carcinogen]: DERMAL, Route [Promoter]: DERMAL, Species: MOUSE, Strain/Sex: MALE) is on record?
A: integumentary system (skin)

Q: Which outcome (Carcinogen: AZOXYMETHANE, 25843-45-2, Doses [Carcinogen]: 7.4 MG/KG IN 0.9% SALINE 1/WK FOR 10 WK, Doses [Promoter]: 0, 50 UG/KG IN OLIVE OIL 1/2 D BEGINNING AT THE START OF CARCINOGEN TREATMENT AND CONTINUING FOR DURATION OF STUDY (STUD, Route [Carcinogen]: SUBCUTANEOUS, Route [Promoter]: SUBCUTANEOUS, Species: RAT, Strain/Sex: WISTAR/MALE) does the source give for `CSCC[C@H](NC(=O)[C@H](Cc1ccccc1)NC(=O)CNC(=O)CNC(=O)[C@@H](N)Cc1ccc(O)cc1)C(=O)O` here?
A: colon: tumor

Q: What about the outcome (Carcinogen: N-METHYL-N'-NITRO-N-NITROSOGUANIDINE, 70-25-7, Doses [Carcinogen]: 25 UG/ML IN DRINKING WATER FOR 25 WK, Doses [Promoter]: 0, 20 UG/KG 1/2 D BEGINNING POST CARCINOGEN TREATMENT AND CONTINUING FOR THE DURATION OF STUDY (STUDY DURATION: 52 WK), Route [Carcinogen]: ORAL, Route [Promoter]: SUBCUTANEOUS, Species: RAT, Strain/Sex: WISTAR/MALE) of the same compound?
A: stomach: adenocarcinoma

Q: For `COc1ccc(O)cc1`, which outcome (Carcinogen: DIETHYLNITROSAMINE, 55-18-5, N-METHYLNITROSOUREA, 684-93-5, 1,2-DIMETHYLHYDRAZINE, 540-73-8, N-BUTYL-N-(4-HYDROXYBUTYL)N, Carcinogen: DIETHYLNITROSAMINE, 55-18-5, N-METHYLNITROSOUREA, 684-93-5, 1,2-DIMETHYLHYDRAZINE, 540-73-8, N-BUTYL-N-(4-HYDROXYBUTYL)N, Doses [Carcinogen]: 100 MG/KG BW DEN ONCE FOLLOWED BY 20 MG/KG BW MNU 2/WK FOR 2 WK THEN 40 MG/KG BW DMH 2/WK FOR THE NEXT 2 WK, 0.05% BBN I, Doses [Promoter]: 0, 0.4% IN DIET FOR 24 WK BEGINNING POST CARCINOGEN TREATMENT (STUDY DURATION: 28 WK), Route [Carcinogen]: INTRAPERITONEAL, INTRAPERITONEAL, SUBCUTANEOUS, ORAL, Route [Carcinogen]: INTRAPERITONEAL, INTRAPERITONEAL, SUBCUTANEOUS, ORAL, Route [Promoter]: ORAL, Species: RAT, Strain/Sex: F344/MALE) is on record?
A: forestomach: papilloma

Q: Which outcome [1] does the source give for `CCCCCCCCCC(=O)O[C@@H]1[C@@H](C)[C@@]2(O)[C@@H](C=C(CO)C[C@]3(O)C(=O)C(C)=C[C@@H]23)[C@@H]2C(C)(C)[C@]12OC(=O)CCCCCCCCC` here?
A: forestomach

Q: For `CCCCCC1(CCCCCC(=O)OC23C(OC(C)=O)C(C)C4(O)C(C=C(CO)CC5(O)C(=O)C(C)=CC54)C2C3(C)C)OCC(C)(C)N1[O]` (stereo not drawn), which outcome (Carcinogen: 7,12-DIMETHYLBENZ[A]ANTHRACENE, 57-97-6, Doses [Carcinogen]: 100 NMOL ONCE, Doses [Promoter]: 0, 20 NMOL 2/WK FOR 24 WK BEGINNING 1 WK POST CARCINOGEN DOSE (STUDY DURATION: 25 WK), Route [Carcinogen]: DERMAL, Route [Promoter]: DERMAL, Species: MOUSE, Strain/Sex: NMRI/FEMALE) is on record?
A: skin: tumor

Q: Which outcome (Carcinogen: 7,12-DIMETHYLBENZ[A]ANTHRACENE, 57-97-6, Doses [Carcinogen]: 100 NMOL ONCE, Doses [Promoter]: 0, 50, 100, 200 NMOL 2/WK FOR 24 WK BEGINNING 1 WK POST CARCINOGEN DOSE (STUDY DURATION: 25 WK), Doses [Promoter]: 0, 50, 100, 200 NMOL 2/WK FOR 24 WK BEGINNING 1 WK POST CARCINOGEN DOSE (STUDY DURATION: 25 WK), Route [Carcinogen]: DERMAL, Route [Promoter]: DERMAL, Species: MOUSE, Strain/Sex: NMRI/FEMALE) does the source give for `CCCCCCCCCCCCCC(=O)OCC1=C[C@H]2C3C(C)(C)C3(OC(C)=O)[C@H](OC(=O)CCCCCCCCCCCCC)[C@@H](C)[C@]2(O)[C@@H]2C=C(C)C(=O)[C@]2(O)C1` (stereo partly drawn) here?
A: skin: tumor

Q: With `COC(=O)/C=C/C=C/CCCCCCCCCCCCCO` as the compound, how does the outcome [1] read?
A: integumentary system (skin)

Q: Which outcome (Carcinogen: 1,2-DIMETHYLHYDRAZINE, 540-73-8, Doses [Carcinogen]: 8 MG/KG BW 1/WK FOR 20 WK, Doses [Promoter]: 0, 0.1 ML OF A SOLUTION IN OLIVE OIL 1/WK FOR 30 WK ADMINISTERED 1 DAY PRIOR TO EACH CARCINOGEN DOSE AND CONTINUING FOR, Route [Carcinogen]: SUBCUTANEOUS, Route [Promoter]: SUBCUTANEOUS, Species: MOUSE, Strain/Sex: C3H/FEMALE) does the source give for `CCC(=O)Oc1ccc2c(c1)CC[C@@H]1[C@@H]2CC[C@]2(C)[C@@H](OC(=O)CC)CC[C@@H]12` here?
A: uterus: sarcoma

Q: For `O=C1OC(O)C(C(Cl)Cl)=C1Cl` (stereo not drawn), which outcome (Carcinogen: N-METHYL-N'-NITRO-N-NITROSOGUANIDINE [70-25-7], SODIUM CHLORIDE [7647-14-5], Doses [Carcinogen]: 100 PPM MNNG IN DRINKING WATER FOR 8 WK, 5% SODIUM CHLORIDE IN DIET FOR 8 WK (STUDY DURATION: 65 WK), Doses [Promoter]: 30 PPM IN DRINKING WATER FOR 53 WK BEGINNING POST LAST CARCINOGEN DOSE (STUDY DURATION: 65 WK), Route [Carcinogen]: ORAL, ORAL, Route [Promoter]: ORAL, Species: RAT, Strain/Sex: WISTAR/MALE) is on record?
A: glandular stomach: adenocarcinoma

Q: Which outcome (Carcinogen: N-ETHYL-N-HYDROXYETHYLNITROSAMINE, 13147-25-6, Doses [Carcinogen]: 500 PPM IN DIET FOR 2 WK, Doses [Promoter]: 0, 100 MG/100 G BW IN 2 ML 5% SALINE GIVEN 1/2 WK FOR 3 DOSES BEGINNING 1 WK POST CARCINOGEN (STUDY DURATION: 32 WK), Route [Carcinogen]: ORAL, Route [Promoter]: SUBCUTANEOUS, Species: RAT, Strain/Sex: WISTAR/MALE) does the source give for `NC(CO)C(=O)O` (stereo not drawn) here?
A: kidney: dark cell tumor, clear cell tumor, adenocarcinoma

Q: What about the outcome (Carcinogen: N-ETHYL-N-HYDROXYETHYLNITROSAMINE, 13147-25-6, Doses [Carcinogen]: 1000 PPM IN DIET FOR 2 WK, Doses [Promoter]: 0, 100 MG/100 G BW IN 2 ML 5% SALINE GIVEN 1/2 WK FOR 3 DOSES BEGINNING 1 WK POST CARCINOGEN (STUDY DURATION: 32 WK), Route [Carcinogen]: ORAL, Route [Promoter]: SUBCUTANEOUS, Species: RAT, Strain/Sex: WISTAR/MALE) of the same compound?
A: kidney: dark cell tumor, clear cell tumor, adenocarcinoma

Q: Which outcome (Carcinogen: 7,12-DIMETHYLBENZ[A]ANTHRACENE, 57-97-6, Doses [Carcinogen]: 50 NMOL IN 200 µL ACETONE 2/WK FOR 16 WK, Doses [Promoter]: 0, 0.5, 25 NMOL IN 200 µL ACETONE APPLIED 1 HR PRIOR TO CARCINOGEN DOSES 2/WK FOR 16 WK (STUDY DURATION: 16 WK), Doses [Promoter]: 0, 0.5, 25 NMOL IN 200 µL ACETONE APPLIED 1 HR PRIOR TO CARCINOGEN DOSES 2/WK FOR 16 WK (STUDY DURATION: 16 WK), Route [Carcinogen]: DERMAL, Route [Promoter]: DERMAL, Species: MOUSE, Strain/Sex: CD-1/FEMALE) does the source give for `CC1=C(/C=C/C(C)=C/C=C/C(C)=C/C(=O)O)C(C)(C)CCC1` here?
A: skin: tumors

Q: With `C=C1C[C@@H]2[C@H](CC[C@]3(C)C(=O)CC[C@@H]23)[C@@]2(C)C=CC(=O)C=C12` as the compound, how does the outcome (Carcinogen: N-Methyl-N-nitrosourea, 684-93-5, Doses [Carcinogen]: 50 mg/kg bw, intraperitoneal, twice on days 43 and 49 of age, Doses [Promoter]: 0, 0.0001, 0.001% in diet from 7 d before carcinogen administration for 12 wks (Study duration 12 wks), Route [Carcinogen]: intraperitoneal, Route [Promoter]: Oral, Species: Rat, Strain/Sex: Sprague-Dawley/Female (19-20/Group)) read?
A: mammary gland: various (statistically significant increase in tumor frequency, b

Q: For `O=c1[nH]cnc2[nH]ncc12`, which outcome (Carcinogen: N-(4-(5-NITRO-2-FURYL)-2-THIAZOLYL)FORMAMIDE, Doses [Carcinogen]: DIET, Doses [Promoter]: IN DIET, Route [Carcinogen]: ORAL, Route [Promoter]: ORAL, Species: RAT, Strain/Sex: FEMALE) is on record?
A: urinary bladder

Q: What does the source list for `O=[N+]([O-])c1ccc(F)c([N+](=O)[O-])c1`?
A: outcome (Carcinogen: 7,12-DIMETHYLBENZ[A]ANTHRACENE, 57-97-6, Doses [Carcinogen]: 2.5 UG IN 200 µL ACETONE ONCE, Doses [Promoter]: 0, 0.1, 0.2% IN ACETONE/OLIVE OIL (4:1) 2/WK FOR 52 WK BEGINNING 2 WK POST CARCINOGEN DOSE (STUDY DURATION: 54 WK), Doses [Promoter]: 0, 0.1, 0.2% IN ACETONE/OLIVE OIL (4:1) 2/WK FOR 52 WK BEGINNING 2 WK POST CARCINOGEN DOSE (STUDY DURATION: 54 WK), Route [Carcinogen]: DERMAL, Route [Promoter]: DERMAL, Species: MOUSE, Strain/Sex: SENCAR/FEMALE): skin: tumor; outcome (Carcinogen: 7,12-DIMETHYLBENZ[A]ANTHRACENE, 57-97-6, Doses [Carcinogen]: 100 NMOL ONCE, Doses [Promoter]: 0, 0.1, 0.2% 2/WK FOR 27 WK BEGINNING 2 WK POST CARCINOGEN DOSE (STUDY DURATION: 59 WK), Doses [Promoter]: 0, 0.1, 0.2% 2/WK FOR 27 WK BEGINNING 2 WK POST CARCINOGEN DOSE (STUDY DURATION: 59 WK), Route [Carcinogen]: DERMAL, Route [Promoter]: DERMAL, Species: MOUSE, Strain/Sex: SENCAR/FEMALE): skin: tumor
